Data taken from PubChem BioAssay (NCI).
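These data come from cells grown in 96-well plates and exposed to compound for 48 hours at five concentrations. TGI is the concentration that stops growth completely.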

Legend:
Experiment in all cases: NCI anticancer screen, dose series, 48 h
HCT-15 colon = system: HCT-15 colon
OVCAR-3 ovarian = system: OVCAR-3 ovarian
UO-31 renal = system: UO-31 renal
A549 NSCLC = system: A549 NSCLC
DMS 273 small cell lung = system: DMS 273 small cell lung
786-0 renal = system: 786-0 renal
NCI-H522 lung = system: NCI-H522 lung
HT29 colon = system: HT29 colon
EKVX NSCLC = system: EKVX NSCLC
HCC-2998 colon = system: HCC-2998 colon
XF 498 CNS = system: XF 498 CNS
LOX IMVI melanoma = system: LOX IMVI melanoma
SR leukemia = system: SR leukemia
OVCAR-4 ovarian = system: OVCAR-4 ovarian
OVCAR-5 ovarian = system: OVCAR-5 ovarian
SK-OV-3 ovarian = system: SK-OV-3 ovarian
RPMI-8226 leukemia = system: RPMI-8226 leukemia
SN12C renal = system: SN12C renal
NCI-H460 lung = system: NCI-H460 lung
K-562 leukemia = system: K-562 leukemia
COLO 205 colon = system: COLO 205 colon
UACC-62 melanoma = system: UACC-62 melanoma
TK-10 renal = system: TK-10 renal
IGROV1 ovarian = system: IGROV1 ovarian
SK-MEL-5 melanoma = system: SK-MEL-5 melanoma
SK-MEL-2 melanoma = system: SK-MEL-2 melanoma
M19-MEL melanoma = system: M19-MEL melanoma
HOP-62 NSCLC = system: HOP-62 NSCLC
HL-60(TB) leukemia = system: HL-60(TB) leukemia
SNB-19 CNS = system: SNB-19 CNS
LXFL 529 NSCLC = system: LXFL 529 NSCLC
SW-620 colon = system: SW-620 colon
M14 melanoma = system: M14 melanoma
ACHN renal = system: ACHN renal
U251 CNS = system: U251 CNS
OVCAR-8 ovarian = system: OVCAR-8 ovarian
HCT-116 colon = system: HCT-116 colon
DMS 114 small cell lung = system: DMS 114 small cell lung
NCI-H23 lung = system: NCI-H23 lung
A498 renal = system: A498 renal
RXF-631 renal = system: RXF-631 renal
KM12 colon = system: KM12 colon
UACC-257 melanoma = system: UACC-257 melanoma
SK-MEL-28 melanoma = system: SK-MEL-28 melanoma
NCI-H226 lung = system: NCI-H226 lung
RXF 393 renal = system: RXF 393 renal
SNB-75 CNS = system: SNB-75 CNS
MOLT-4 leukemia = system: MOLT-4 leukemia
SF-295 CNS = system: SF-295 CNS
CCRF-CEM leukemia = system: CCRF-CEM leukemia
MALME-3M melanoma = system: MALME-3M melanoma
SF-268 CNS = system: SF-268 CNS
SNB-78 CNS = system: SNB-78 CNS
SF-539 CNS = system: SF-539 CNS
HOP-92 NSCLC = system: HOP-92 NSCLC
DLD-1 colon = system: DLD-1 colon
HOP-18 NSCLC = system: HOP-18 NSCLC
CAKI-1 renal = system: CAKI-1 renal
KM20L2 colon = system: KM20L2 colon

Measured: TGI

COc1ccc(O)c2c(=O)ccccc12
60 µM: TK-10 renal
91.7 µM: NCI-H522 lung
not listed: HOP-18 NSCLC | CAKI-1 renal | KM20L2 colon
> 100 µM: all other assays above

CCOC(=O)/C=C(\C)c1ccc(Cl)cc1
98.4 µM: NCI-H226 lung
not listed: OVCAR-3 ovarian | 786-0 renal | NCI-H522 lung | SK-OV-3 ovarian | UACC-62 melanoma | SK-MEL-5 melanoma | M19-MEL melanoma | HOP-62 NSCLC
> 100 µM: all other assays above
